Laboratory results published in US6355685B1, “Method of treating anxiety disorders” (Knoll Pharmaceutical Company, priority 1999, dated 2002).

System: rat elevated plus-maze
Test: rat elevated plus-maze (animal model of anxiety)
Type: in vivo
Details: 3 mg/kg po
Procedure: This model was carried out as described in J. Neurosci. Methods 1985; 14:149-167.

## CC(C)CC(N(C)C)C1(c2ccc(Cl)cc2)CCC1.Cl.O (stereo not shown) [N-{1-[1-(4-chlorophenyl)cyclobutyl]-3-methylbutyl}-N,N-dimethylamine hydrochloride monohydrate]
  open: total arm entry ratio: significant anxiolytic-like increase
